Source: patent US20180360093A1, “NUTRITIONAL COMPOSITIONS AND INFANT FORMULAS TO PROMOTE MYELINATION IN THE BRAIN” (NESTEC S.A., priority 2015, published 2018)

Test system: brain myelination
Assay: Cross-sectional correlation analysis (GLM) of formula nutrient composition versus brain myelination (MWF by mcDESPOT MRI)
Type: in vivo, human
Conditions: children up to 5 years fed different infant formulas during infancy; voxel-wise correlations, p<0.05 corrected
Description: MRI brain scans of infants and children between 0 and 5 years were acquired using a white matter imaging technique. This technique provides a quantitative measure, the Myelin Water Fraction (MWF), which is a surrogate marker of myelin content. When mapped as a function of time across early childhood, myelination trajectories can be generated.
Infant formula composition: six infant formulas fed to infants participating in study were analyzed for their composition/level of myelin-relevant nutrients.
Infants included in this study were drawn from a larger longitudinal study of normal brain and behavioral development: the Brown university Assessment of Myelination and Behavior Across Maturation (BAMBAM). To focus on neurotypical development, children with known potential risk factors for learning, neurologic, or psychiatric disorders were specifically excluded during recruitment and enrollment. Thus, children with in utero alcohol or illicit substance exposure, premature (<37 weeks gestation) or multiple birth, fetal ultrasound abnormalities, complicated pregnancy (e.g., preeclampsia), APGAR scores<8, NICU admission, neurological disorder (e.g., head injury, epilepsy), psychiatric or developmental disorders in the infant, parents or siblings (including maternal depression requiring medication) were excluded. Ongoing screenings, such as the MCAT for autism, or CBCL for behavioral problems, were further used to remove enrolled children with clinically concerning behaviors or overt medical conditions (such as autism spectrum disorders).
A combination of retrospective and prospective data were acquired from parents via detailed medical histories and parental interview on type of infant formula used, percentage of breastfeeding to formula feeding, and length of exclusive breastfeeding. This information was updated at each study visit, which occurred approximately every 6 months for children under 2 years, and yearly for older children. Using this information, children were categorized into one of 2 groups: #1. Exclusively formula-fed; and #2. Exclusively breastfed for at least 90 days (3 months). Children who were fed a combination of breastmilk and formula within 3 months were excluded from our analysis. Infants within the exclusively formula-fed group were further sub-divided based on parental reports of the main infant formula used throughout the first 3 months. Main formula was defined as that given 90% of the time or more (in the case were parents used an alternate brand during vacation, for example).
Using these criteria, 94 exclusively formula-fed infants and young children were selected into group #1. These included 13 children who received formula #2; 28 who received formula #5; 8 who received formula #3; 39 who received formula #4; 5 who received formula #1 and 1 who received formula #6. A sample of 52 exclusively breast-fed infants were also selected and matched to the over formula-fed group with regards to mean age, gestation duration, birth weight, male:female ratio, ethnicity ratio, maternal education, family size, and number of languages spoken in the home (in addition to English).
Each infant was scanned using the mcDESPOT (multicomponent Driven Equilibrium Single Pulse Observation of T1 and T2) white matter imaging technique Deoni et al. (Magn. Reson. Med. 2008, 60:1372-1387), which provides a quantitative measure of the myelin water fraction (MWF) at each imaging point throughout the brain. All infants were scanned during natural (i.e. non-sedated) sleep using acoustically-muffled mcDESPOT imaging protocols. Total imaging times ranged from 19 minutes for the youngest toddlers to 24 minutes for the older 4 year-old children.

Compound	nutritional drivers for myelination (final general linear model)
Vitamin B12	identified drivers
phosphatidylinositol	identified drivers
phosphatidylcholine	identified drivers
sphingomyelin	identified drivers
C[N+](C)(C)CCO [Choline]	identified drivers
CCCCC/C=C\C/C=C\C/C=C\C/C=C\CCCC(=O)O [ARA, arachidonic acid]	identified drivers
